According to PubChem BioAssay (NCI):
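Dose response: 5 concentrations. Exposure: 48 h. Format: 96-well plates. Endpoint: linear interpolation; highest concentration if not reached. GI50: concentration for 50% inhibition of growth. TGI marks complete inhibition of growth.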

How the values were obtained:
Test in all cases: NCI anticancer screen, dose series, 48 h
786-0 renal = tested on: 786-0 renal
SK-MEL-2 melanoma = tested on: SK-MEL-2 melanoma
COLO 205 colon = tested on: COLO 205 colon
TK-10 renal = tested on: TK-10 renal
A549 NSCLC = tested on: A549 NSCLC
CCRF-CEM leukemia = tested on: CCRF-CEM leukemia
NCI-H23 lung = tested on: NCI-H23 lung
CAKI-1 renal = tested on: CAKI-1 renal
MOLT-4 leukemia = tested on: MOLT-4 leukemia
UACC-257 melanoma = tested on: UACC-257 melanoma
ACHN renal = tested on: ACHN renal
SF-268 CNS = tested on: SF-268 CNS
HCT-116 colon = tested on: HCT-116 colon
DU-145 prostate = tested on: DU-145 prostate
MDA-MB-231 breast = tested on: MDA-MB-231 breast
BT-549 breast = tested on: BT-549 breast
HOP-92 NSCLC = tested on: HOP-92 NSCLC
SF-539 CNS = tested on: SF-539 CNS
HCT-15 colon = tested on: HCT-15 colon
A498 renal = tested on: A498 renal
EKVX NSCLC = tested on: EKVX NSCLC
HOP-62 NSCLC = tested on: HOP-62 NSCLC
MDA-MB-435 = tested on: MDA-MB-435
SR leukemia = tested on: SR leukemia
M14 melanoma = tested on: M14 melanoma
T-47D breast = tested on: T-47D breast
HT29 colon = tested on: HT29 colon
NCI-H460 lung = tested on: NCI-H460 lung

## C#C[C@]1(O)CC[C@H]2[C@@H]3CC=C4c5sc(Nc6cc(Cl)ccn6)nc5CC[C@]4(C)[C@H]3CC[C@@]21C
786-0 renal
  TGI: 594 nM
SK-MEL-2 melanoma
  GI50: 1430 nM
  TGI: 3950 nM
COLO 205 colon
  GI50: 1660 nM
  TGI: 3420 nM
TK-10 renal
  GI50: 2210 nM
  TGI: 11400 nM
A549 NSCLC
  GI50: 1180 nM
  TGI: 2610 nM
CCRF-CEM leukemia
  GI50: 463 nM
  TGI: > 22500 nM
NCI-H23 lung
  GI50: 1350 nM
  TGI: 4710 nM
CAKI-1 renal
  GI50: 725 nM
  TGI: 2200 nM
MOLT-4 leukemia
  GI50: 321 nM
  TGI: 1950 nM
UACC-257 melanoma
  GI50: 727 nM
  TGI: 2200 nM
ACHN renal
  GI50: 834 nM
SF-268 CNS
  GI50: 1450 nM
  TGI: 4550 nM
HCT-116 colon
  GI50: 784 nM
  TGI: 2350 nM
DU-145 prostate
  GI50: 2530 nM
  TGI: > 100000 nM
MDA-MB-231 breast
  GI50: 1580 nM
  TGI: 4610 nM
BT-549 breast
  GI50: 627 nM
  TGI: 2360 nM
HOP-92 NSCLC
  GI50: 1530 nM
  TGI: 3370 nM
SF-539 CNS
  GI50: 214 nM
  TGI: 741 nM
HCT-15 colon
  GI50: 1010 nM
  TGI: 4880 nM
A498 renal
  GI50: 828 nM
  TGI: 2280 nM
EKVX NSCLC
  GI50: 1080 nM
  TGI: 4790 nM
HOP-62 NSCLC
  GI50: 759 nM
  TGI: 2670 nM
MDA-MB-435
  GI50: 1060 nM
  TGI: 3090 nM
SR leukemia
  GI50: 308 nM
  TGI: 1380 nM
M14 melanoma
  GI50: 736 nM
  TGI: 2270 nM
T-47D breast
  GI50: 2440 nM
  TGI: > 26300 nM
HT29 colon
  GI50: 1420 nM
  TGI: 3150 nM
NCI-H460 lung
  GI50: 922 nM
  TGI: 2670 nM
